In PubChem BioAssay AID602235 (The Scripps Research Institute Molecular Screening Center, 2012):
Active and inactive are the calls of the source. How the calls were made is not given here.

These compounds were tested against Nuclear receptor coactivator 1 (Homo sapiens) (UniProt Q15788) (assay: inhibition of NCOA1 transcriptional coactivation in cells – cell-based, luciferase reporter, luminescence, dose response (AID 602235;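 further: cells transfected with pGL4.31 reporter plus pBIND-SRC1 vector; potency is for inhibitors that lower SRC1 reporter luminescence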)). Settings: cell-based SRC1 luciferase reporter.
Chain of Nuclear receptor coactivator 1 (Homo sapiens) (Q15788 whole entry, looked up): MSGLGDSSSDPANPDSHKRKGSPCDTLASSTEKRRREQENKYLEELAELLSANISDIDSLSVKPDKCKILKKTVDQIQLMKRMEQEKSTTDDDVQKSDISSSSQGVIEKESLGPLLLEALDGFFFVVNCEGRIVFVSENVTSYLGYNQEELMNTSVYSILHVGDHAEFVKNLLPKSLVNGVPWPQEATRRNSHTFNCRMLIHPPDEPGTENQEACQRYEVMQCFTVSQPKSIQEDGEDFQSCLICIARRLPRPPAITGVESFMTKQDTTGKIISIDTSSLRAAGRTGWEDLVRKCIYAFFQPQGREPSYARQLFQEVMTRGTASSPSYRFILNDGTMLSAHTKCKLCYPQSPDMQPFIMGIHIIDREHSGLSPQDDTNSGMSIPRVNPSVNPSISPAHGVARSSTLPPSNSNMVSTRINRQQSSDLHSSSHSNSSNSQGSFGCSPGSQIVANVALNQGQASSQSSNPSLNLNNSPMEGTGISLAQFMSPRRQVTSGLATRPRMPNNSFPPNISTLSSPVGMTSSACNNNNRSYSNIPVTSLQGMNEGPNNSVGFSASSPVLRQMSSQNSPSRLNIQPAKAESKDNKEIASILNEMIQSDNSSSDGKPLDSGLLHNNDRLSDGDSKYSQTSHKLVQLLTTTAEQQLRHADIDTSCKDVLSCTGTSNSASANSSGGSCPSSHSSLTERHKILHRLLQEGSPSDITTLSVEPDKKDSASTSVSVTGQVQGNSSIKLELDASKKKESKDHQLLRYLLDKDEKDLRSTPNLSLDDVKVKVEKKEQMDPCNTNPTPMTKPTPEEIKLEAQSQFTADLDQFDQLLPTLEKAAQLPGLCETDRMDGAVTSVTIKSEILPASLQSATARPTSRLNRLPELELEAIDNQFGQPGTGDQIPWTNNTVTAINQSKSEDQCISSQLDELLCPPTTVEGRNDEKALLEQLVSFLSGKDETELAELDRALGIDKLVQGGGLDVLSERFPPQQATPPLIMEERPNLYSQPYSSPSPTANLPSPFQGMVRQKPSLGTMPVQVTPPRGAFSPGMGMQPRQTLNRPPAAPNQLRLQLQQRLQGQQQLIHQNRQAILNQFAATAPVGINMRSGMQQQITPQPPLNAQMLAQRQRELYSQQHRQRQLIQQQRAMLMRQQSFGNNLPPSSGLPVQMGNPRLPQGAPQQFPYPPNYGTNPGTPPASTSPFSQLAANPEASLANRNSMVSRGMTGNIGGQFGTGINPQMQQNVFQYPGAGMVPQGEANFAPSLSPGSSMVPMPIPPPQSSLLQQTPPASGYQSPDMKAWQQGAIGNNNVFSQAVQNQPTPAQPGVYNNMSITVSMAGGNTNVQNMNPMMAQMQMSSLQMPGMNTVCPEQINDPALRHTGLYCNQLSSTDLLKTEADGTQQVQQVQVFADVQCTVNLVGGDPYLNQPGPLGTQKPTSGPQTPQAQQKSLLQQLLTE
`CCOc1ccc(/C=C2\SC(=S)N(CCCC(=O)NCCCN3CCOCC3)C2=O)cc1` was tested, and the IC50 was > 12 µM (inactive).
In the case of `CCN(CC(=O)Nc1ccc(NC(C)=O)cc1)C(=O)C1(c2ccc(Cl)cc2)CCC1`, the IC50 is reported as “inactive”.
For `NS(=O)(=O)c1ccc(Nc2nc(-c3cccnc3)cs2)cc1`, the IC50 was > 35.8 µM (inactive).
With `OCCN1CCN(C(=S)c2ccc(-c3ccccc3)cc2)CC1` the IC50 was > 35.9 µM (inactive).
In the case of `O=C1CCC/C1=c1\s/c(=C/c2cccnc2)c(=O)n1-c1ccccc1`, the IC50 is reported as “inactive”.
With `Cc1nn(CC(=O)N2CCN(c3cccc(C(F)(F)F)c3)CC2)c(=O)c2cccn12` the IC50 was “inactive”.
`COc1ccc(/C=C2/SC(=S)N(CCC(=O)O)C2=O)cc1` was tested, and the IC50 was > 35.9 µM (inactive).
With `CN(C)c1ccc(/C=C/c2nc3ccccc3s2)cc1` the IC50 was “inactive”.
With `COc1ccc(-c2cnc(N)nc2-c2ccc(OC)cc2O)cc1` the IC50 was “inactive”.
With `Cc1cc(/C=C2\Cc3ccccc3C2=O)c(C)n1-c1ccccc1` the IC50 was > 35.9 µM (inactive).
`CCc1nc(N)nc(N)c1-c1ccc(Cl)c([N+](=O)[O-])c1` was tested, and the IC50 was 6.12 µM.
`O=C(O)CN1C(=O)/C(=C\c2ccccc2OCc2ccc(Cl)cc2Cl)SC1=S` was tested, and the IC50 was “inactive”.
With `Cc1cc(C)nc(SCc2ccc(C(=O)N/N=C/c3cccc(O)c3O)cc2)n1` the IC50 was 5.18 µM.
`COc1ccc(Nc2ncnc3ccc(Br)cc23)c(OC)c1` gave an IC50 of 2.44 µM.
`c1cnc2ccc(-n3ccnc3)cc2c1` was tested, and the IC50 was > 35.9 µM (inactive).
For `Cc1ccc(OCC(=O)c2cc(C)n(-c3ccccc3)c2C)c([N+](=O)[O-])n1`, the IC50 was “inactive”.
`Cc1c2ccncc2cc2c1[nH]c1ccccc12` was tested, and the IC50 was > 35.9 µM (inactive).
With `O=C(Nc1cccc2c1CCCC2)c1cc([N+](=O)[O-])ccc1Cl` the IC50 was > 35.9 µM (inactive).
For `Nc1nc(CCl)nc(Nc2cccc3ccccc23)n1`, the IC50 was “inactive”.
With `CCCCC(=O)Nc1cccn2ncnc12` the IC50 was “inactive”.
With `COc1ccc(-n2cnc(N)c2C(=O)c2cccc([N+](=O)[O-])c2)cc1` the IC50 was “inactive”.
Work on `Cc1nc2ccccn2c1-c1ccnc(=S)[nH]1` yielded an IC50 of 6.33 µM.
In the case of `O=C(CCCc1nc(-c2ccccc2Cl)no1)NC1CCCC1`, the IC50 is reported as “inactive”.
`Cc1ccc(/C=C2/SC(=S)N(CCCC(=O)Nc3ccc(O)cc3)C2=O)cc1` was tested, and the IC50 was > 35.9 µM (inactive).
In the case of `CNc1ncnc(Sc2nc(N)nc3nc[nH]c23)c1[N+](=O)[O-]`, the IC50 is reported as > 35.9 µM (inactive).
For `CCOC(=O)CC(=O)CSc1nccc(-c2cccnc2)n1`, the IC50 was “inactive”.
In the case of `Cc1ccccc1C(=O)/C(C#N)=N/Nc1c(C)n(C)n(-c2ccccc2)c1=O`, the IC50 is reported as “inactive”.
With `Cc1ccc(OCC(=O)c2cc(C)n(Cc3cccs3)c2C)c([N+](=O)[O-])n1` the IC50 was > 35.9 µM (inactive).
For `CC(C)Cn1c(N)c(C(=O)COC(=O)c2cc3ccccc3cc2O)c(=O)n(C)c1=O`, the IC50 was > 35.9 µM (inactive).
`Fc1cccc(CSc2nnc3ccc(-c4ccncc4)nn23)c1` was tested, and the IC50 was > 35.8 µM (inactive).
With `Cc1nn(C(C)(C)C)c(C)c1/C=N/OC(=O)Nc1ccc(Cl)c(Cl)c1` the IC50 was “inactive”.
Compound `O=C(CCCOc1ccc(Cl)cc1Cl)N/N=C/c1ccccc1O` has an IC50 of 6.73 µM.
In the case of `O=C(N/N=C/c1cc([N+](=O)[O-])ccc1O)c1cccc(N2CCCC2=O)c1`, the IC50 is reported as “inactive”.
In the case of `COc1ccc(OC)c(/C=C2\NC(=O)NC2=O)c1`, the IC50 is reported as 7.42 µM.
`CC1CCCCN1c1ncnc2ccccc12` (configuration not stated) was tested, and the IC50 was > 35.9 µM (inactive).
`CCC(=O)Oc1c(C(=O)CC)cc2c(C)cc(=O)oc2c1C` was tested, and the IC50 was > 35.8 µM (inactive).
For `CCOC(=O)c1c(NC(=O)C(C)N2CCN(C(=O)c3ccco3)CC2)sc2c1CCCC2` (configuration not stated), the IC50 was “inactive”.
`COc1ccc2ncn(-c3ccccc3)c2c1` gave an IC50 of 8.16 µM.
With `S=C(c1ccc(-c2ccccc2)cc1)N1CCOCC1` the IC50 was > 35.8 µM (inactive).
`CCN(Cc1ccncc1)C(=O)CC1C(=O)NCCN1Cc1ccc(F)c(F)c1` (configuration not stated) was tested, and the IC50 was “inactive”.
With `O=C(CCl)N1N=C(c2cccs2)CC1c1ccco1` (configuration not stated) the IC50 was > 35.9 µM (inactive).
`Cc1sc2ncnc(N3CCC(C(=O)Nc4cc(S(C)(=O)=O)ccc4Cl)CC3)c2c1C` was tested, and the IC50 was “inactive”.
With `C=CCn1c(O)c(C(C)=NCc2cc(OC)cc(OC)c2)c(=O)[nH]c1=O` the IC50 was “inactive”.
For `CCOc1ccc(-c2noc(CCC(=O)O)n2)cc1`, the IC50 was > 35.9 µM (inactive).
With `CC(=O)c1cc2c(C)cc(=O)oc2cc1O` the IC50 was > 35.9 µM (inactive).
With `Cc1ccc(O)c(Nc2ncnc3ccc([N+](=O)[O-])cc23)c1` the IC50 was “inactive”.
Compound `CCc1ccc(/C=C2\SC(=S)N(CCCC(=O)NCCCN3CCOCC3)C2=O)cc1` has an IC50 of 6.27 µM.
For `CCCS(=O)(=O)c1c(S(=O)(=O)CCC)c2c(C)cccn2c1C(=O)N/N=C/c1cc(O)cc(O)c1`, the IC50 was “inactive”.
For `COc1ccc(Oc2nc3c(c(=O)n(C)c(=O)n3C)n2C)cc1`, the IC50 was “inactive”.
With `CCOc1cccc(/C=N/NC(=O)c2cccnc2)c1O` the IC50 was > 12 µM (inactive).
`Nc1ncccc1C(=O)OCC(=O)N1CCN(S(=O)(=O)c2ccc(Cl)cc2)CC1` was tested, and the IC50 was “inactive”.
With `Cc1ccc(S(=O)(=O)Nc2c(NC3CCCCC3)c3ccccc3oc2=O)c(C)c1` the IC50 was > 35.9 µM (inactive).
In the case of `Cc1c(/C(O)=C2/C(=O)C(=O)N(Cc3cccnc3)C2c2ccccn2)cnn1-c1ccccc1` (configuration not stated), the IC50 is reported as “inactive”.
Work on `Cc1ccc2occ(/C=N/NC(=O)[C@@H](N)Cc3ccccc3)c(=O)c2c1` yielded an IC50 of 8.08 µM.
For `CCOc1cc(C(N)=O)cc(Br)c1OC`, the IC50 was “inactive”.
In the case of `Nc1ccc(Oc2ccccc2-c2ccccc2)cc1`, the IC50 is reported as “inactive”.
With `Cc1ccc(N(Cc2cc(=O)[nH]c3ccccc23)C(=O)CCl)c(C)c1` the IC50 was 5.31 µM.
With `O=C(NC(NC(=S)N1CCOCC1)C(Cl)(Cl)Cl)c1ccc(Cl)cc1` (configuration not stated) the IC50 was > 35.9 µM (inactive).
`CC(=O)/C(N=Nc1ccc2c(c1)OCCO2)=C(\C)O` was tested, and the IC50 was > 35.9 µM (inactive).
In the case of `Nc1ccn(C2OC(CO)C(O)C2O)c(=O)n1` (configuration not stated), the IC50 is reported as > 11.9 µM (inactive).
`COc1ccc(CNc2ncc(-c3ccc(F)cc3)n2C)c2ccccc12` was tested, and the IC50 was “inactive”.
With `CCOc1ccc(/C=C2\SC(=S)N(CCC(=O)O)C2=O)cc1` the IC50 was > 35.9 µM (inactive).
For `C=CCn1c(Oc2ccccc2F)nc2c1c(=O)n(C)c(=O)n2C`, the IC50 was “inactive”.
`CCOc1ccccc1-n1c(SCC(=O)Nc2ccccc2C(=O)O)nc2ccccc2c1=O` was tested, and the IC50 was > 35.9 µM (inactive).
`COc1ccc(Nc2ncnc3ccc(C)cc23)cc1` was tested, and the IC50 was 3.97 µM.
Compound `CC1CC(C)C(=NNC(N)=O)C(C(O)CC2CCC(=O)NC2=O)C1` (configuration not stated) has an IC50 of 8.57 µM.
With `CC(C)(C)OC(=O)NCC(=O)Oc1cc2oc(=O)cc(-c3ccccc3)c2cc1Cl` the IC50 was “inactive”.
For `COc1cccc(CNc2ncnc3ccc(-c4c(C)noc4C)cc23)c1`, the IC50 was > 35.9 µM (inactive).
Compound `O=C(Nc1cccc(C(F)(F)F)c1)Nc1nnc([C@@H]2C[C@H](O)[C@@H](CO)O2)s1` has an IC50 of 9.55 µM.
For `N#Cc1c(-c2ccccc2)c(C#N)c2nc3ccccc3n2c1N`, the IC50 was > 35.9 µM (inactive).
With `CN1CCN(c2cccc3c2C(=O)c2ccccc2C3=O)CC1` the IC50 was > 35.9 µM (inactive).
With `C=CCc1ccccc1OCC(=O)N/N=C/c1ccc(OC(C)=O)cc1OC(C)=O` the IC50 was “inactive”.
For `CC(C)(C)NC(=O)C1(C)CCC(=O)N1CCCn1ccnc1` (configuration not stated), the IC50 was “inactive”.
In the case of `O=C1CCC2S/C(=C/Nc3ccc(C(F)(F)F)cc3)C(=O)N12` (configuration not stated), the IC50 is reported as > 35.9 µM (inactive).
In the case of `COc1ccccc1CNC(=O)C(=O)NCCC1CCCCN1S(=O)(=O)c1ccc(C)cc1` (configuration not stated), the IC50 is reported as “inactive”.
With `O=C(NC(=S)Nc1ccc(N2CCN(C(=O)c3ccccc3)CC2)cc1)c1cccs1` the IC50 was “inactive”.
`O=C(Nc1cccc(Cl)c1)Nc1nnc(-c2ccncc2)s1` was tested, and the IC50 was 8 µM.
`O=C(CCl)N1N=C(c2ccco2)CC1c1ccco1` (configuration not stated) showed an IC50 of 5.7 µM.
For `O=C(O)c1ccccc1C(=O)Nc1ccc(Oc2cccc3ccccc23)cc1`, the IC50 was > 35.9 µM (inactive).
`Cc1ccc(/C=C2\SC(=S)N(CCCC(=O)NC3CCCC3)C2=O)cc1` gave an IC50 of 3.37 µM.
In the case of `COc1ccc2c(=O)cc(-c3ccncc3)oc2c1OC`, the IC50 is reported as “inactive”.
With `COc1ccc(NC(=O)CN(C)C(=O)C2(c3ccccc3)CCCC2)cc1` the IC50 was “inactive”.
In the case of `N#Cc1c2ccc(O)cc2n2ccccc12`, the IC50 is reported as > 35.9 µM (inactive).
`CCc1c(C)nc2c(C)cccc2c1SCCC#N` was tested, and the IC50 was > 35.9 µM (inactive).
For `Nc1ccn([C@@H]2O[C@H](CO)[C@@H](O)C2O)c(=O)n1` (some centres not stated), the IC50 was “inactive”.
For `CC1CCN(C(=O)c2scc3c2OCCO3)CC1`, the IC50 was “inactive”.
With `COc1ccccc1/C=C\C(=O)NCC(=O)N/N=C/c1cccc(OC)c1O` the IC50 was “inactive”.
In the case of `O=C(N/N=C/c1ccccc1O)/C(=C/c1ccccc1)CCO`, the IC50 is reported as “inactive”.
In the case of `c1ccc(-c2csc3ncnc(NCCN4CCOCC4)c23)cc1`, the IC50 is reported as “inactive”.
With `O=C(CCC1CCCC1)Nc1ccc(C(=O)NCc2cccnc2)cc1` the IC50 was 3.87 µM.
With `O=C1c2cccc(OCc3ccc(F)cc3)c2CCN1Cc1ccccc1` the IC50 was > 35.9 µM (inactive).
For `O=c1ccc2c(ccc3ncccc32)o1`, the IC50 was “inactive”.
For `O=C(OC(c1ccccc1)c1nccc2ccccc12)c1ccccc1` (configuration not stated), the IC50 was > 11.9 µM (inactive).
`CCCCN(CCCC)c1ncnc2nc[nH]c12` was tested, and the IC50 was “inactive”.
With `Cc1cc(=O)[nH]c(Nc2cccc(Br)c2)n1` the IC50 was “inactive”.
For `N#Cc1cc2ccncc2c2ccccc12`, the IC50 was > 35.9 µM (inactive).
In the case of `CN(C)C(=O)c1ccc(-c2n[nH]c(=O)c3ccccc23)cc1`, the IC50 is reported as “inactive”.
In the case of `COc1cccc(/C=N/NC(=O)C(=O)Nc2ccccc2OC(F)(F)C(F)F)c1O`, the IC50 is reported as 5.69 µM.
`O=C(Nc1ccncc1)c1ccccc1[N+](=O)[O-]` gave an IC50 of 9.54 µM.
With `Cc1ccc(C(=O)Nc2sc(C)c(-c3ccccc3)c2C(N)=O)cc1[N+](=O)[O-]` the IC50 was > 35.9 µM (inactive).
For `NC(=O)c1cc(Sc2ccccc2)nc2ccccc12`, the IC50 was 7.5 µM.
`Cc1c(C(=O)N/N=C/C(C)C)[nH]c2ccc([N+](=O)[O-])cc12` was tested, and the IC50 was “inactive”.
`CC(=O)N1CCN(c2ccc(Oc3ncnc4sccc34)cc2)CC1` was tested, and the IC50 was “inactive”.
With `CN(CC(=O)Nc1ccc(Cl)c(C(F)(F)F)c1)C(=O)C1CC(=O)N(c2ccc3c(c2)OCCO3)C1` (configuration not stated) the IC50 was “inactive”.
With `Cc1ccc2occ(/C=N/NC(=O)c3ccncc3)c(=O)c2c1` the IC50 was “inactive”.
In the case of `O=C(O)c1ccccc1-c1c2cc(I)c(=O)c(I)c-2oc2c(I)c(O)c(I)cc12`, the IC50 is reported as > 35.9 µM (inactive).
With `COc1ccc(-c2ncncc2-c2ccccc2)c(O)c1` the IC50 was “inactive”.
